How the values were obtained:
GPX4 = assay: Western blot, GPX4; format: cell-based, human; conditions: compared to the control
Procedure: (§1) HepG2 cells were seeded into a 6-well plate at 400,000 cells per well. After treatment with 10 μM of JNK-IN-5A and its derivatives for two days, lysates were harvested with CelLytic M (C2978, Sigma-Aldrich). 20 μg lysate was prepared with 2× Laemmli Sample Buffer (1610737, Biorad). SDS PAGE were performed using Mini-PROTEAN® TGX™ Precast Gels (Bio-Rad) and transferred using Trans-Blot® Turbo™ Transfer System (Bio-Rad). Primary antibody, PARP (95425, Cell signalling), Caspase 3 (ab32042, abcam), Bcl-2 (ab182858), STAT1 (HPA000982, Merk), PKL (06653, Sigma), PKM (4053S, Cell signalling), GAPDH (ab8245, abcam), P53 (ab32389, abcam), p21 (ab109199, abcam), p-S349 p62 (ab211324, abcam), p62 (ab109012, abcam), c-Myc (ab32072, abcam), GPX4 (ab125066, abcam), MMP9 (MA5-32705, Invitrogen), β-actin (ab8227, abcam), and α-tubulin (ab7291, abcam) were blotted overnight and Goat Anti-Rabbit HRP (ab205718) and goat anti-mouse IgG-HRP (sc2005, Santa Cruz Biotechnology, Inc.) were blotted for secondary antibody for one hour. ImageQuantTMLAS 500 (29-0050-63, GE) was used to detect protein bands.

PARP = assay: Western blot, cleaved PARP; format: cell-based, human; conditions: 10 μM, 2 days
Procedure: as §1

JNK1/2/3 = assay: Western blot, JNK1/2/3 P54 and p46 isoforms; format: cell-based, human; conditions: 10 μM, 2 days
Procedure: HepG2 cells were seeded into a 6-well plate at 400,000 cells per well. After treatment with 10 μM of JNK-IN-5A and its derivatives for two days, lysates were harvested with CelLytic M (C2978, Sigma-Aldrich). […] SDS PAGE were performed using Mini-PROTEAN® TGX™ Precast Gels (Bio-Rad) and transferred using Trans-Blot® Turbo™ Transfer System (Bio-Rad). […] ImageQuantTMLAS 500 (29-0050-63, GE) was used to detect protein bands.

HepG2 cells [1] = assay: Mitochondrial membrane potential assay (TMRE); format: cell-based, human; conditions: 10 μM, one day
Procedure: (§2) HepG2 cells were seeded into a 6-well plate at 400,000 cells per well. After treatment with the compounds at desired concentration and time, TMRE (ab113852, abcam), Autophagy (ab139484, abcam), ROS (ab113851, abcam), and Lipid peroxidation (ab243377, abcam) assay were performed according to manufacturer's instructions. Fluorescence images were taken using ZOE™ Fluorescent Cell Imager (Biorad) and ROI of fluorescence intensity was measured and calculated by Image J. For microplate reader florescence assay, 40,000 of HepG2 cells were seeded into a 96-well plate and triplicated. GFP (Ex480 nm, Em530 nm) and RFP (Ex549 nm, Em574 nm) were measured using a microplate reader (Hidex Sense Meta Plus).

c-Myc = assay: Nuclear protein western blot, c-Myc; format: cell-based, human; conditions: 10 μM, 2 days
Procedure: as §1

HepG2 cells [2] = assay: Invasion assay (transwell); format: cell-based, human
Procedure: The effects of the treatment with the compounds on the invasion ability of HepG2 and Huh7 cells were determined by 8 μm pores transwell chamber (Corning™ 3464, USA).
(§3) Transwell membrane was coated with 100 μl collagen (Sigma C3867, USA) diluted with PBS to a concentration of 1 mg/ml. After overnight incubation at 4° C., the collagen solution was discarded and the membrane was washed with PBS. 100,000 cells in 200 μl serum free media together with the tested compounds were added into the upper well and 600 μl of 10% FBS supplemented growth media was added to the lower well as an invasive attractant in a 24-well plate. Cells were incubated at 37° C. in a CO2 incubator for one day. The cells were fixed with 3.7% formaldehyde for 30 minutes at room temperature and washed with PBS twice. The cells were stained with 1% crystal violet in PBS for 20 minutes and residual cells in inner membrane were swabbed gently with a cotton swab. Invaded cells located at the outer membrane were imaged by ZOE Fluorescent Cell Imager (Bio-Rad, USA) and counted by image. For wound healing assay, 100,000 cells per well were seeded into 24-well plates and grown until 95-100% confluent. Linear wound was created by using a 200 μl pipette tip. Image was recorded at the time point of day 0 until control group wound closure with 1 μM of compounds by ZOE Fluorescent Cell Imager (Bio-Rad, USA). Wound areas were measured using ImageJ software.

p21 = assay: Nuclear protein western blot, p21; format: cell-based, human; conditions: 10 μM, 2 days
Procedure: as §1

HepG2 cells [3] = assay: Autophagy assay; format: cell-based, human; conditions: 10 μM, one day
Procedure: as §2

[4] = MTT cell viability / IC50 in growth media; format: cell-based, human; conditions: human, HepG2 cells, 10 μM; for viability at 4 day, 10 µM: day 4; for viability at 2 days, 10 µM: treatment for 2 days
Procedure: (§4) The cytotoxic effects of the synthesized drugs on the HepG2 cells were tested by MTT (Thiazolyl Blue Tetrazolium Bromide) method. HepG2 cells were seeded 2×10^4 cells per well in 96-well plate in 200 μL growth media. […] After the incubation period, 5 mg/ml MTT (M2128, Sigma-Aldrich) solution in PBS (10 μL) was added to each well. After 1 hr, the MTT solution and all media were removed from the wells. 100 μl of DMSO was added and mixed to dissolve the formazan crystals. Cell viability was analysed by measuring the absorbance of the dissolved formazan in a microplate reader at a wavelength of 570 nm with microplate reader (Hidex Sense Beta Plus).
(§5) HepG2 cells were maintained and used with RPMI 1640 (R2405, Sigma-Aldrich) supplemented with 10% fetal bovine serum (F7524, Sigma-Aldrich), 1% P/S (P4333, Sigma-Aldrich). 20,000 cells per well of HepG2 cells were seeded into a 96-well plate and triplicated for MTT assay and LDH assay. Cell viability was measured by MTT assay (M6494, ThermoFisher) and cytotoxicity was measured by LDH assay kit (ab65393, abcam) by following manufacturer's instructions. Optical density (O.D) was numerated using a microplate reader (Hidex Sense Meta Plus).

HepG2 cells [5] = assay: MTT cell viability / IC50 in growth media; format: cell-based, human; conditions: 30 μM to 30 nM; for IC50: Homo sapiens, 48 h, HepG2, treatment for 2 days
Procedure: as §4, §5

Caspase 3 = assay: Western blot, active caspase 3; format: cell-based, human; conditions: 10 μM, 2 days
Procedure: as §1

HepG2 cells [6] = assay: FACs analysis with PI staining (cell cycle); format: cell-based, human; conditions: for cell cycle distribution / arrest: PI FACS
Procedure: 400,000 HepG2 cells were seeded in a 6-well plated and treated with 10 μM of the compounds for 2 days. Cells were fixed with 70% ethanol and stained with 50 μg/ml PI. Prepared cells were analysed using BD FACS Canto II Flow Cytometry system at PE-A channel 10,000 cells per group. The data was histogram plotted with BD FACSDiva 9.0.

HepG2 cells [7] = assay: Wound healing assay; format: cell-based; conditions: Homo sapiens, HepG2, 96 h, day 4, untreated 100% wound closure, read-out: wound healing delayed by
Procedure: as §3

SMILES	GPX4 expression levels (GPX4)	increase in cleaved PARP vs untreated control (PARP) [times]	JNK1/2/3 p46 expression (JNK1/2/3) [times]	mitochondrial membrane potential (HepG2 cells [1])	nuclear c-Myc expression (c-Myc)	inhibition at 1 µM (HepG2 cells [2]; Homo sapiens, HepG2, 24 hr, read-out: invasiveness reduced by) [%]	p21 nuclear localization (p21)	autophagy GFP signals (HepG2 cells [3])	viability at 4 day, 10 µM [4] [%]	viability at 2 days, 10 µM [4] [%]	dose dependence of cell viability (HepG2 cells [5])	IC50 (HepG2 cells [5]) [µM]	active caspase 3 levels (Caspase 3) [times]	cell cycle distribution / arrest (HepG2 cells [6])	Cell population G0/G1 (HepG2 cells [6]; PI FACs, 10 μM, 2 days)	Cell population G2/M (HepG2 cells [6]; PI FACs, 10 μM, 2 days)	Cell population S (HepG2 cells [6]; PI FACs, 10 μM, 2 days)	inhibition at 1 µM (HepG2 cells [7]) [%]	invasiveness reduced by (HepG2 cells [2]; 1 μM, 24 hr)
CNC(=O)c1cc(Oc2ccc(NC(=O)Nc3ccc(Cl)c(C(F)(F)F)c3)c(F)c2)ccn1 [Regorafenib, regorafenib, reference compound]	significantly higher	16	0.65	decrease	decreased	21	not	did not induce autophagy	13.4	41.1	dose-dependent decrease in cell viability	5.91	3.61	did not alter the cell cycle distribution significantly	70.5	14.9	9.7	44.8	–
CNC(=O)c1cc(Oc2ccc(NC(=O)Nc3ccc(Cl)c(C(F)(F)F)c3)cc2)ccn1 [Sorafenib, sorafenib, reference compound]	significantly higher	10	0.81	decrease	decreased	–	not	did not induce autophagy	19.2	51	dose-dependent decrease in cell viability	8.64	4.35	did not alter the cell cycle distribution significantly	–	–	10.1	35	28.7%±2.9

From patent US20260234159A1, “SMALL MOLECULE TREATMENT OF FATTY LIVER DISEASE AND HCC” (SCANDIEDGE THERAPEUTICS AB, priority 2023, published 2026)
